What was measured:
Aβ(1-40) = biological target: T1, Aβ(1-40) (Homo sapiens, UniProt P05067); assay: AFM topography of Aβ(1-40) after coincubation for 48 h; type: biochemical; details: coincubated for 48 h
T1 construct: Freeze-dried powder of amyloid polypeptide Aβ(1-40) (Invitrogen Corp.); purchased Invitrogen Corp
Protocol: Panel A is the AFM topography after Aβ(1-40) was incubated alone for 48 h. Panel B is an AFM topography after Aβ(1-40) was coincubated with L-NIBC for 48 h. Panel C and panel D are AFM topographies after Aβ(1-40) was coincubated with gold nanoparticles with an average particle size of 6.0 nm and 3.6 nm respectively (modified with L-NIBC) for 48 h. And panel E is an AFM topography after Aβ(1-40) was coincubated with AuCs in an average particle size of 1.8 nm (modified with L-NIBC) for 48 h.

[1] = test system: SH-SY5Y neuroblastoma cell line; assay: Aβ induced AD cell model, cell viability by CCK-8; type: cell-based; details: 0.01-20 ppm (L-NIBC 20 ppm); 20 μM Aβ(1-40), 24 h
Protocol: The cell viability was used as an index in the experiment of this embodiment. […] The cells used in the experiment were SH-SY5Y neuroblastoma cell line. […] Specific method:
1) SH-sy5y cells (cells had passed to the sixth generation) in logarithmic growth phase were diluted with complete medium (MEM+10% FBS+1% penicillin-streptomycin) to get a cell suspension in a density of 5×10^4/mL. The suspension was inoculated 200 μL per well into a 96-well plate, and cultivated in an incubator with 5% CO2 at 37° C. A sample was added when the cells attached to the wells.
2) 100 μL ligand-modified AuCs samples or ligand-modified gold nanoparticles samples, at different particle sizes and at concentrations of 0.04 ppm, 0.4 ppm, 4 ppm, 20 ppm, 40 ppm and 80 ppm respectively, which were dissolved by maintenance medium (MEM+2% FBS+1% penicillin-streptomycin) were added into the incubated suspension obtained from Step 1). After incubating in the incubator for 2 h, 100 μL 80 μM Aβ(1-40) was added, and then the mixture was incubated in the incubator for 24 h. […] The culture medium was removed, maintenance medium (MEM) containing 10% CCK-8 at 100 μL/well was added and was incubated for 4 h, the absorbance of each well at 450 nm was measured to reflect the prevention and treatment effects of ligand-modified AuCs on Aβ(1-40) lesion.

α-syn = biological target: T2, α-syn (Homo sapiens, UniProt P37840); assay: In vitro α-syn aggregation kinetics (ThT fluorescent labeling); type: biochemical; details: L-NIBC only, 1.0 and 10.0 ppm; 35 μM α-syn, 37° C.
T2 construct: purchased Bachem Corp
Source text: Thioflavin T (abbreviation: ThT) is a dye for dyeing amyloid fibers specifically. […] When it encounters amyloid polypeptide or protein with a fiber structure, it will immediately couple with the amyloid polypeptides or proteins and its fluorescence intensity will increase exponentially. For this reason, ThT is widely used as markers to monitor amyloidosis of peptides or proteins. This embodiment utilizes ThT fluorescent labeling method to monitor the kinetics process of fibrosis aggregation of α-syn with the existence of AuCs. The specific experiment method was as follows:
Pretreatment of α-syn monomers: Freeze-dried powder (Bachem Corp.) of α-syn was dissolved in HFIP to obtain a 1 g/L α-syn solution. The solution was incubated at room temperature for 2-4 h after sealing, then blowed to dry HFIP by high-purity nitrogen in a fume hood. […]
Sample preparation and detection: Ligand-modified AuCs in different concentrations listed in Table 1 were added to 35 μM α-syn PBS solutions respectively, and incubated continuously in a 96-well plate at 37° C., by ThT fluorescent labeling method, and were monitored the fluorescence intensity by microplate reader once every 10 minutes. The kinetic process of α-syn aggregation was characterized through the change of fluorescence intensity of ThT. […]

T1 sequence (P05067 672-711 limits assumed): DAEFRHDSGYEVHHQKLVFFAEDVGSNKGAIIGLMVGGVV

effect on kinetics of α-syn aggregation (α-syn): did not have an obvious effect
Compound: CC(C)C(=O)N[C@@H](CS)C(=O)O [L-NIBC, N-isobutyryl-L-cysteine]
Aβ(1-40) fibers in AFM topography (Aβ(1-40)): no obvious effect on the formation of Aβ(1-40) fibers
effect on cell viability in Aβ induced AD cell model [1]: did not improve cell viability
